The assay has as its system Male C57BL/6 mice. In words: oral glucose tolerance test in mice. It counts as in vivo. To be noted: oral glucose 3 g/kg at 0 min, versus vehicle. As for the experimental part:
All animal experiments described below and listed in Table 1 were performed in accordance to Austrian law and the principles of good laboratory animal care. Data shown in Table 1 are obtained using commercially available male mice purchased, e.g. from the breeding facilities of Charles River Lab. (USA). Male C57BL/6 mice were used at the age of 7-30 weeks and had free access to a standard laboratory chow diet (kg/kg: <10% crude fat) and water except for defined fasting periods before experimentation. They were maintained at room temperature and a 12 h/12 h light-dark cycle.
The antidiabetic activities of the products listed in Table 1 were evaluated in oral glucose tolerance tests in mice, in analogy to the procedure known to the general physician. Mice were fasted for 8-12 hours prior to oral glucose tolerance testing. For biological testing, the products listed in Table 1 were dissolved or suspended in 0.5% carboxymethylcellulose containing 1-2% acetic acid. A control group receiving no test product was examined in parallel in each test run. The control group received the same amount of a 0.5% carboxymethylcellulose solution containing 1-2% acetic acid (vehicle). Administration of products listed in Table 1 or vehicle at T=−45 min was followed after 45 min by oral administration via gavage of a glucose solution (3 g/kg) at T=0 min. Blood was collected via puncture of the tip of the tail immediately before administration of products listed in Table 1 or vehicle, immediately before administration of glucose, and at T=30 min and/or T=90 and/or T=150 as the case may be. Blood glucose was determined using portable glucometers as commonly used in human diabetes.
The increment in blood glucose at T=min over levels measured at T=0 min was calculated for each animal. Mean values of the increment for treatment group and vehicle group were compared (typical group size n=6-10 mice). Percent reduction induced by products listed in Table 1 versus vehicle was the readout parameter for glucose-lowering activity. As listed in Table 1, an effect of 1 means a reduction of more than 15% of incremental blood glucose at the given time point T=min versus vehicle group.
Antidiabetic effects of products are listed in Table 1 as evaluated in a glucose tolerance test in mice.

Setting [1] is: product dose 90 mg/kg per os at -45 min, glucose measurement at 30 min.
Where [2] appears, read: product dose 45 mg/kg per os at -45 min, glucose measurement at 30 min.

The results in this text go back to patent publication US20110160238A1, “OCTAHYDROQUINOLIZINES FOR ANTIDIABETIC TREATMENT” (55PHARMA DRUG DISCOVERY & DEVELOPMENT AG, priority 2008, published 2011).

For `CC1(c2ccc(F)cc2)CCC2(C)CC(=O)CCN2C1` (stereo not shown) [Product 3b, 7-(4-fluorophenyl)-7,9a-dimethyloctahydro-2H-quinolizin-2-one], the Antidiabetic activity under setting [1] was 1 (an effect of 1 means a reduction of more than 15% of incremental blood glucose at the given time point T=min versus vehicle group). For `CC1(c2ccccc2)CCC2(C)CC3(CCCO3)CCN2C1` (stereo not shown) [Product 5a, 7′,9a′-dimethyl-7′-phenyldecahydro-3H-spiro[furan-2,2′-quinolizine]], the Antidiabetic activity (product dose 22.5 mg/kg per os at -45 min, glucose measurement at 30 min) is on record as 1 (an effect of 1 means a reduction of more than 15% of incremental blood glucose at the given time point T=min versus vehicle group); the Antidiabetic activity (product dose 90 mg/kg per os at -45 min, glucose measurement at 90 min) is reported as 1 (an effect of 1 means a reduction of more than 15% of incremental blood glucose at the given time point T=min versus vehicle group); the Antidiabetic activity (product dose 90 mg/kg per os at -45 min, glucose measurement at 150 min) is given as 1 (an effect of 1 means a reduction of more than 15% of incremental blood glucose at the given time point T=min versus vehicle group).

With `CC1(c2ccc(F)cc2)CCC2(C)CC3(CCCO3)CCN2C1` (stereo not shown) [Product 5b, 7′-(4-fluorophenyl)-7′,9a′-dimethyldecahydro-3H-spiro[furan-2,2′-quinolizine]], under setting [2], the Antidiabetic activity is 1 (an effect of 1 means a reduction of more than 15% of incremental blood glucose at the given time point T=min versus vehicle group). Regarding `CC1(c2ccc(F)cc2)CCC2(C)CC3(CCC(=O)O3)CCN2C1` (stereo not shown) [Product 6b, 7′-(4-fluorophenyl)-7′,9a′-dimethyldecahydro-5H-spiro[furan-2,2′-quinolizine]-5-one], the Antidiabetic activity under setting [2] is recorded as 1 (an effect of 1 means a reduction of more than 15% of incremental blood glucose at the given time point T=min versus vehicle group).

Consider `CC1(c2ccccc2)CCC2(C)CC(=O)CCN2C1` (stereo not shown) [Product 3a, 7,9a-dimethyl-7-phenyloctahydro-2H-quinolizin-2-one], for which, under setting [1], the Antidiabetic activity is reported as 1 (an effect of 1 means a reduction of more than 15% of incremental blood glucose at the given time point T=min versus vehicle group).
